Test results published in patent US20240342080A1, “COMPOSITIONS AND METHODS FOR INHIBITING HUMAN BLOOD PROTEIN VITRONECTIN” (Sanford Burnham Prebys Medical Discovery Institute, priority 2021, published 2024).

Assays:
[1] = test system: HAP deposited on spherules; assay: In vitro drusen model: production of HAP-protein-lipid proto-spherules (fluorescence emission reflects HAP deposited); assay type: biochemical
From the text: (§1) An in vitro assay was designed to produce proto-spherule like those found in AMD drusen. HAP was detected with a specific fluorescent dye. This assay was used to discover inhibitors.
(§2) In Vitro Drusen Model: Production of HAP-Protein-Lipid Proto-Spherules
(§3) In this model, fluorescence emission reflected the amount of HAP deposited on spherules. The results are show in FIG. 1. […] Pyrophosphate (PPi) is a mineralization inhibitor and serves as negative control. There are many HAP-binding proteins but Vn is unique: it plays an active role in HAP mineralization.

[2] = target: T1, human blood protein vitronectin (Vn) (Homo sapiens, UniProt P04004); assay: In vitro drusen model used to test Vn antibodies as inhibitors of Vn-dependent HAP deposition; assay type: biochemical; settings: FIG. 2
T1 construct: made in house; host or cells: Escherichia coli
T1 sequence (P04004 20-478): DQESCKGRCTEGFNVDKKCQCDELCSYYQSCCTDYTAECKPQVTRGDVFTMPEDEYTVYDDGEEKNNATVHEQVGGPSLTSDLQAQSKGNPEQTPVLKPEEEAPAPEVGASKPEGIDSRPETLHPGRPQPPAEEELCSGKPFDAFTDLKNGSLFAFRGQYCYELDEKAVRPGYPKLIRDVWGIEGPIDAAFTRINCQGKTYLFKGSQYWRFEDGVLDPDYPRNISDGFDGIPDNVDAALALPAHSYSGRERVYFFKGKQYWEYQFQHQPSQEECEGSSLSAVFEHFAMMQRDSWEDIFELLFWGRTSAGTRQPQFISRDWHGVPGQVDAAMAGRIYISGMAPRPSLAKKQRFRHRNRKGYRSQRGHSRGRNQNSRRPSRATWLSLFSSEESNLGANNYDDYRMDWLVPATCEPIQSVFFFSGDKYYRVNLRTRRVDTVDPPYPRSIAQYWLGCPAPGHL
Procedure: as §1
Vn was prepared from Escherichia coli. All buffer solutions were prepared with Milli-Q deionized water. For calcium-free preparations, the protein was folded by dropwise dilution from buffer T1 (20 mM Tris HCl pH 8, 6 M guanidine, 10 mM dithiothreitol) into buffer T2 (20 mM Tris HCl pH 8, 500 mM ArgCl, 300 mM NaCl, 5 mM β-mercaptoethanol, 1 mM hydroxyethyldisulfide), followed by dialysis into buffer MI (20 mM MES, pH 6.5, 300 mM NaCl) and size exclusion chromatography (Superdex 200 10/300 GL, GE Healthcare). Calcium-containing samples were prepared by supplementing buffer MI with CaCl2).
as §2, §3
This assay was used to test Vn antibodies (need details on Abc, Abm and Abn and IGF II) as potential inhibitors.

Substance | effect on HAP deposition / mineralization on spherules (fluorescence emission) ([1]; FIG. 1) | effect on HAP deposition / mineralization on spherules (fluorescence emission) ([1]; FIG. 1, listed as Vn) | effect on HAP deposition (fluorescence emission) [2]
Amyloid-β (Aβ): Amyloid-β, comparison protein in the in vitro drusen model [reference compound] | no significant effect on HAP mineralization |  | 
Vitronectin: human blood protein vitronectin, prepared from Escherichia coli | increases HAP deposition on spherules in a dose-dependent and time-dependent manner | promotes HAP formation | promotes HAP deposition in a dose- and time-dependent manner
